Results from the NIST ThermoML archive (doi:10.1016/j.jct.2010.10.016).
± gives the expanded uncertainty stated by the source.

Assay: relative permittivity at various frequencies (dimensionless); xn = mol fraction of the nth substance listed
Conditions: 101 kPa, Liquid, Frequency=3 MHz, AC method

CCCCOCCO [2-butoxyethan-1-ol] + C[N+](=O)[O-]
relative permittivity (293.15 K, x2 = 0): 9.78 ± 0.04 | relative permittivity (293.15 K, x2 = 0.05): 12.57 ± 0.05 | relative permittivity (293.15 K, x2 = 0.0999): 14.98 ± 0.05 | relative permittivity (293.15 K, x2 = 0.2): 19.71 ± 0.05 | relative permittivity (293.15 K, x2 = 0.3): 24.36 ± 0.06 | relative permittivity (293.15 K, x2 = 0.4): 28.77 ± 0.06 | relative permittivity (293.15 K, x2 = 0.5): 32.64 ± 0.06 | relative permittivity (293.15 K, x2 = 0.6): 35.72 ± 0.06 | relative permittivity (293.15 K, x2 = 0.7001): 38.28 ± 0.06 | relative permittivity (293.15 K, x2 = 0.8): 40.28 ± 0.05 | relative permittivity (293.15 K, x2 = 0.9005): 40.93 ± 0.05 | relative permittivity (293.15 K, x2 = 0.95): 39.91 ± 0.05 | relative permittivity (298.15 K, x2 = 0): 9.35 ± 0.04 | relative permittivity (298.15 K, x2 = 0.05): 11.95 ± 0.05 | relative permittivity (298.15 K, x2 = 0.0999): 14.28 ± 0.05 | relative permittivity (298.15 K, x2 = 0.2): 18.87 ± 0.05 | relative permittivity (298.15 K, x2 = 0.3): 23.34 ± 0.06 | relative permittivity (298.15 K, x2 = 0.4): 27.63 ± 0.06 | relative permittivity (298.15 K, x2 = 0.5): 31.38 ± 0.07 | relative permittivity (298.15 K, x2 = 0.6): 34.44 ± 0.07 | relative permittivity (298.15 K, x2 = 0.7001): 36.93 ± 0.07 | relative permittivity (298.15 K, x2 = 0.8): 38.93 ± 0.07 | relative permittivity (298.15 K, x2 = 0.9005): 39.67 ± 0.07 | relative permittivity (298.15 K, x2 = 0.95): 38.78 ± 0.07 | relative permittivity (303.15 K, x2 = 0): 8.88 ± 0.04 | relative permittivity (303.15 K, x2 = 0.05): 11.28 ± 0.05 | relative permittivity (303.15 K, x2 = 0.0999): 13.54 ± 0.05 | relative permittivity (303.15 K, x2 = 0.2): 18 ± 0.05 | relative permittivity (303.15 K, x2 = 0.3): 22.34 ± 0.06 | relative permittivity (303.15 K, x2 = 0.4): 26.37 ± 0.06 | relative permittivity (303.15 K, x2 = 0.5): 29.98 ± 0.07 | relative permittivity (303.15 K, x2 = 0.6): 32.99 ± 0.07 | relative permittivity (303.15 K, x2 = 0.7001): 35.47 ± 0.07 | relative permittivity (303.15 K, x2 = 0.8): 37.36 ± 0.07 | relative permittivity (303.15 K, x2 = 0.9005): 37.93 ± 0.07 | relative permittivity (303.15 K, x2 = 0.95): 37.3 ± 0.07 | relative permittivity (308.15 K, x2 = 0): 8.39 ± 0.04 | relative permittivity (308.15 K, x2 = 0.05): 10.61 ± 0.05 | relative permittivity (308.15 K, x2 = 0.0999): 12.78 ± 0.05 | relative permittivity (308.15 K, x2 = 0.2): 17.16 ± 0.05 | relative permittivity (308.15 K, x2 = 0.3): 21.34 ± 0.06 | relative permittivity (308.15 K, x2 = 0.4): 25.27 ± 0.06 | relative permittivity (308.15 K, x2 = 0.5): 28.79 ± 0.06 | relative permittivity (308.15 K, x2 = 0.6): 31.85 ± 0.06 | relative permittivity (308.15 K, x2 = 0.7001): 34.31 ± 0.06 | relative permittivity (308.15 K, x2 = 0.8): 36 ± 0.07 | relative permittivity (308.15 K, x2 = 0.9005): 36.51 ± 0.07 | relative permittivity (308.15 K, x2 = 0.95): 36.07 ± 0.06 | relative permittivity (313.15 K, x2 = 0): 7.91 ± 0.04 | relative permittivity (313.15 K, x2 = 0.05): 9.96 ± 0.05 | relative permittivity (313.15 K, x2 = 0.0999): 12.04 ± 0.05 | relative permittivity (313.15 K, x2 = 0.2): 16.23 ± 0.06 | relative permittivity (313.15 K, x2 = 0.3): 20.28 ± 0.06 | relative permittivity (313.15 K, x2 = 0.4): 24.13 ± 0.06 | relative permittivity (313.15 K, x2 = 0.5): 27.65 ± 0.07 | relative permittivity (313.15 K, x2 = 0.6): 30.75 ± 0.07 | relative permittivity (313.15 K, x2 = 0.7001): 33.16 ± 0.07 | relative permittivity (313.15 K, x2 = 0.8): 34.68 ± 0.08 | relative permittivity (313.15 K, x2 = 0.9005): 35.07 ± 0.08 | relative permittivity (313.15 K, x2 = 0.95): 34.84 ± 0.07

C[N+](=O)[O-] [nitromethane] + COCCO
relative permittivity (293.15 K, x1 = 0.05): 19.49 ± 0.05 | relative permittivity (293.15 K, x1 = 0.0998): 21.49 ± 0.05 | relative permittivity (293.15 K, x1 = 0.2): 25.34 ± 0.05 | relative permittivity (293.15 K, x1 = 0.3): 29.02 ± 0.05 | relative permittivity (293.15 K, x1 = 0.4): 32.43 ± 0.05 | relative permittivity (293.15 K, x1 = 0.5): 35.32 ± 0.05 | relative permittivity (293.15 K, x1 = 0.6): 37.67 ± 0.06 | relative permittivity (293.15 K, x1 = 0.7): 39.53 ± 0.06 | relative permittivity (293.15 K, x1 = 0.8002): 40.88 ± 0.05 | relative permittivity (293.15 K, x1 = 0.8999): 40.91 ± 0.06 | relative permittivity (293.15 K, x1 = 0.9503): 39.82 ± 0.05 | relative permittivity (293.15 K, x1 = 1): 37.31 ± 0.05 | relative permittivity (298.15 K, x1 = 0.05): 18.95 ± 0.05 | relative permittivity (298.15 K, x1 = 0.0998): 20.81 ± 0.05 | relative permittivity (298.15 K, x1 = 0.2): 24.57 ± 0.05 | relative permittivity (298.15 K, x1 = 0.3): 28.08 ± 0.05 | relative permittivity (298.15 K, x1 = 0.4): 31.42 ± 0.06 | relative permittivity (298.15 K, x1 = 0.5): 34.24 ± 0.06 | relative permittivity (298.15 K, x1 = 0.6): 36.51 ± 0.06 | relative permittivity (298.15 K, x1 = 0.7): 38.31 ± 0.06 | relative permittivity (298.15 K, x1 = 0.8002): 39.53 ± 0.06 | relative permittivity (298.15 K, x1 = 0.8999): 39.5 ± 0.07 | relative permittivity (298.15 K, x1 = 0.9503): 38.54 ± 0.07 | relative permittivity (298.15 K, x1 = 1): 36.52 ± 0.05 | relative permittivity (303.15 K, x1 = 0.05): 18.48 ± 0.05 | relative permittivity (303.15 K, x1 = 0.0998): 20.26 ± 0.05 | relative permittivity (303.15 K, x1 = 0.2): 23.89 ± 0.05 | relative permittivity (303.15 K, x1 = 0.3): 27.27 ± 0.05 | relative permittivity (303.15 K, x1 = 0.4): 30.47 ± 0.06 | relative permittivity (303.15 K, x1 = 0.5): 33.22 ± 0.06 | relative permittivity (303.15 K, x1 = 0.6): 35.49 ± 0.06 | relative permittivity (303.15 K, x1 = 0.7): 37.26 ± 0.06 | relative permittivity (303.15 K, x1 = 0.8002): 38.38 ± 0.06 | relative permittivity (303.15 K, x1 = 0.8999): 38.23 ± 0.07 | relative permittivity (303.15 K, x1 = 0.9503): 37.28 ± 0.06 | relative permittivity (303.15 K, x1 = 1): 35.66 ± 0.05 | relative permittivity (308.15 K, x1 = 0.05): 17.81 ± 0.05 | relative permittivity (308.15 K, x1 = 0.0998): 19.57 ± 0.05 | relative permittivity (308.15 K, x1 = 0.2): 23.11 ± 0.05 | relative permittivity (308.15 K, x1 = 0.3): 26.43 ± 0.06 | relative permittivity (308.15 K, x1 = 0.4): 29.45 ± 0.06 | relative permittivity (308.15 K, x1 = 0.5): 32.16 ± 0.06 | relative permittivity (308.15 K, x1 = 0.6): 34.47 ± 0.06 | relative permittivity (308.15 K, x1 = 0.7): 36.18 ± 0.06 | relative permittivity (308.15 K, x1 = 0.8002): 37.08 ± 0.07 | relative permittivity (308.15 K, x1 = 0.8999): 36.88 ± 0.07 | relative permittivity (308.15 K, x1 = 0.9503): 36.1 ± 0.07 | relative permittivity (308.15 K, x1 = 1): 34.92 ± 0.05 | relative permittivity (313.15 K, x1 = 0.05): 17.21 ± 0.05 | relative permittivity (313.15 K, x1 = 0.0998): 18.85 ± 0.05 | relative permittivity (313.15 K, x1 = 0.2): 22.12 ± 0.06 | relative permittivity (313.15 K, x1 = 0.3): 25.3 ± 0.06 | relative permittivity (313.15 K, x1 = 0.4): 28.29 ± 0.06 | relative permittivity (313.15 K, x1 = 0.5): 31.09 ± 0.06 | relative permittivity (313.15 K, x1 = 0.6): 33.47 ± 0.06 | relative permittivity (313.15 K, x1 = 0.7): 35.12 ± 0.07 | relative permittivity (313.15 K, x1 = 0.8002): 35.78 ± 0.08 | relative permittivity (313.15 K, x1 = 0.8999): 35.27 ± 0.08 | relative permittivity (313.15 K, x1 = 0.9503): 34.7 ± 0.07 | relative permittivity (313.15 K, x1 = 1): 34.09 ± 0.05
